In patent US20150087037A1, “FERMENTATION PROCESS” (LanzaTech New Zealand Limited, priority 2013, published 2015):

Key:
Type in all cases: cell-based, Clostridium autoethanogenum
[1] = test system: C. autoethanogenum DSM23693; experiment: Linked two reactor (R1, R2) fermentation system, continuous 2-HIBA addition (Examples 2 and 3)
Experimental: (§1) Fermentations with C. autoethanogenum DSM23693 were carried out in 1.5 L bioreactors at 37° C. The media was prepared according to Table 1. To achieve anaerobicity the reactor vessel was sparged with nitrogen. Prior to inoculation, the gas was switched to either steel mill gas containing H2 (3%), N2 (30%), CO (47%) and CO2 (20%) or pure gases (50% CO, 18-40% CO2, with the balance N2). The gas flow was initially set at 67 ml/min/L, increasing to 200 ml/min during mid-exponential phase, while the agitation was increased from 200 rpm to 800. Na2S was dosed into the bioreactor at 0.25 ml/hr. Once the OD600 reached 1.5, the bioreactor was switched to a continuous mode at a dilution rate of 2.0-1.6 d-l and a bacterial dilution rate of 0.9-0.6 d-l. During continuous mode gas and agitation were adjusted to 900-950 rpm and 800-900 ml/min. Na2S was increased to 1.0 ml/hr.
(§2) Liquid culture samples were taken at differing intervals over the duration of the fermentation. These samples were used to establish the optical density at 600 nm (spectrophotometer) and the level of substrates and products (high performance liquid chromatography—HPLC). HPLC was routinely used to quantify the level of acetate, ethanol and 2,3-butanediol. The input and output gas compositions were analysed using a gas chromatographer (GC), allowing measurement of CO and H2 consumption and CO2 production by the culture.
A two reactor system was used to examine the impact of continuous 2-HIBA addition on the metabolite profile. Initially 0.5 g/L/day (4.8 mM/day) 2-HIBA was added to the R2 only, this increased the production of 2,3-BDO but the ratio only dropped to as low as 1.9:1. Continuous addition of 2-HIBA at 0.5 g/L/day (4.8 mM/day) was then added to the R1. […] This would be achieved by improving the concentration in both the R1 and the R2 as the 2-HIBA is transferred from the R1 to the R2 (through liquid flow) along with improved 2,3-BDO concentrations. The 2,3-BDO concentration increased from 5.7 g/L to 14 g/L in the R1 and from 16 g/L to 21 g/L in the R2 (see FIGS. 3 and 4). The ratio of ethanol:2,3-BDO dropped to 1:1 in the R1 and 1.3:1 in the R2 and remained stable for a period of eight days. The improvement of the ratio was achieved as a result of increased 2,3-BDO concentration and a drop in ethanol production.
Over time the ethanol concentration after the 2-HIBA addition improved whilst the concentration of 2,3-BDO remained stable, this had the effect of improving the total alcohol productivity of the system.
The results achieved in Example 2 were repeated with the aim to improve the overall titre of 2,3-BDO. In this experiment the 2-HIBA concentration was increased to 1 g/L/day (9.6 mM/day).

[2] = test system: C. autoethanogenum DSM23693; experiment: Minimum 2-HIBA concentration needed to impact 2,3-butanediol production, continuous addition through the media (Example 4)
Experimental: as §1, §2
In order to understand the minimum concentrations needed to generate the same effect the concentration used was dropped to 0.1 g/L (0.96 mM) in one example and 0.05 g/L (0.48 mM) in another example. Both fermentations had gas increased to minimize acetate and maximize ethanol production. Additional CO2 was blended into the gas stream to maximize 2,3-BDO production, the gas blend used was 50% CO, 35% CO2, 1.5% H2 with N2 balance. The dilution rate and bacterial dilution rate were adjusted to 1.8 day^−1 and 0.8 day^−1 respectively. Once stable data was collected continuous 2-HIBA addition through the media was started and resulting impact on metabolite concentrations observed. In both examples the ratio before the addition of 2-HIBA was about 2:1, and the resulting impact on the Ethanol:2,3-BDO ratio was proportional to the concentration of 2-HIBA used. In the first example where 0.1 g/L (0.96 mM) was used the ratio improved to 1:1 and when the concentration was halved (in the second example) the response was an improvement in the ratio to only 1.5:1.
In two further experiments concentrations from 0.01 g/L to 0.1 g/L (0.096, 0.24, 0.48, 0.72, 0.96 mM) were added and the impact on the metabolites observed. Again the fermentations had gas increased to minimize acetate and maximize ethanol production with CO2 blended into the gas stream to maximize 2,3-BDO production. The dilution rate and bacterial dilution rate were adjusted to 1.8 day^−1 and 0.9 day^−1 respectively. The gas blend used was 42% CO, 35% CO2, 1.5% H2 with N2 balance.

[3] = test system: C. autoethanogenum DSM23693; experiment: Fermentation started in the presence of 2-HIBA, impact on growth (Example 5)
Experimental: as §1, §2
To see if the 2-HIBA impacts negatively on growth a fermentation was started in the presence of 0.05 g/L (0.48 mM) 2-HIBA. During growth gas and agitation were increased so that by day 5.0 the agitation had reached a maximum of 950 rpm and the gas flow 800 ml/min. At this time the dilution rate was 1.8 day^−1 and the bacterial dilution rate 0.85 day^−1.

[4] = test system: branch chain amino acid production; experiment: Monitoring BCAA production during 2-HIBA addition (Example 7); conditions: FIG. 11
Description: In order to generate further evidence that 2-HiBA interferes with branch chain amino acid production, the concentrations of these amino acids were monitored directly before and after the addition of 2-HIBA. FIG. 11 illustrates the results; immediately after the addition of 2-HIBA the concentrations of valine, leucine and isoleucine drop as well as biomass.

[5] = R1, average across eight days, 0.5 g/L/day 2-HIBA
[6] = R1, gas data average across eight days, 0.5 g/L/day 2-HIBA
[7] = R2, average across eight days, 0.5 g/L/day 2-HIBA
[8] = R2, gas data average across eight days, 0.5 g/L/day 2-HIBA
[9] = over time after 2-HIBA addition

## CC(C)(O)C(=O)O [2-HIBA, 2-hydroxyisobutyric acid]
[1]; 0.5 g/L/day 2-HIBA, FIGS. 5 and 6
  impact on CO and hydrogen uptake: did not negatively impact
[1]; 0.5 g/L/day (4.8 mM/day) 2-HIBA added to R1, increased from 5.7 g/L
  2,3-BDO concentration in R1: 14 g/L
[1]; 1 g/L/day (9.6 mM/day) 2-HIBA
  impact on gas uptake: not negatively impacted
[1]; 1 g/L/day (9.6 mM/day) 2-HIBA, highest reached, FIG. 7
  overall 2,3-BDO concentration: 23.9 g/L
[1]; R1, average across eight days of stable operation, 0.5 g/L/day 2-HIBA
  Acetate: 6.5 g/L
[1]; [5]
  2,3 BDO: 13.7 g/L
  2,3 BDO productivity: 27 g/L/day
  Biomass: 9.2 g/L
  Ethanol: 14.4 g/L
  Lactate: 0.0 g/L
[1]; [6]
  CO2 production: 5630 mmol/L
  CO uptake: -8830 mmol/L
  CO utilisation: 53%
  H2 production: 423 mmol/L
[1]; [7]
  2,3 BDO: 21.3 g/L
  2,3 BDO productivity: 16 g/L/day
  Acetate: 7.8 g/L
  Biomass: 15.6 g/L
  Ethanol: 28.3 g/L
  Lactate: 0.0 g/L
[1]; [8]
  CO2 production: 4932 mmol/L
  CO uptake: -7930 mmol/L
  CO utilisation: 63%
  H2 production: 413 mmol/L
[2]; 0.01 g/L to 0.1 g/L tested, 0.01 g/L = 0.096 mM
  lowest concentration that impacts on the production of 2,3-butanediol: 0.01 g/L
[2]; Expt 1: 0.96 mM/day HIBA addition, before 9.4
  CO uptake: 9.8 mol/L/day
[2]; Expt 1: 0.96 mM/day HIBA addition, before 9.67
  2,3-BDO: 16.35 g/L
[2]; Expt 1: 0.96 mM/day HIBA addition, before 10.7
  Biomass: 9.83 g/L
[2]; Expt 1: 0.96 mM/day HIBA addition, before 20.33
  Ethanol: 17.05 g/L
[2]; Expt 2: 0.48 mM/day HIBA addition, before 8.2
  CO uptake: 8 mol/L/day
[2]; Expt 2: 0.48 mM/day HIBA addition, before 8.42
  2,3-BDO: 10.56 g/L
[2]; Expt 2: 0.48 mM/day HIBA addition, before 12.69
  Biomass: 12.14 g/L
[2]; Expt 2: 0.48 mM/day HIBA addition, before 18.73
  Ethanol: 15.56 g/L
[2]; for every 0.05 g/L (0.48 mM) added to a stable fermentation, data of four examples, FIG. 8
  drop of Ethanol:2,3-BDO ratio: 0.5 units
[3]; 0.05 g/L (0.48 mM) 2-HIBA
  average ethanol concentration: 17 g/L
[3]; 0.05 g/L (0.48 mM) 2-HIBA in the media from start
  impact on the growth of the fermentation: no impact on the growth
[3]; 0.05 g/L (0.48 mM) 2-HIBA, average
  2,3-butanediol concentration: 15.5 g/L
[4]; immediately after the addition of 2-HIBA (100 mg, 0.96 mM)
  concentrations of valine, leucine and isoleucine and biomass: drop
[4]; [9]
  concentration of isoleucine: appears to recover
  concentration of leucine and valine: remaining lower than the value before 2-HIBA addition
